Source: US20210322324A1, “METHOD FOR TREATING PRIMARY SCLEROSING CHOLANGITIS” (AVOLYNT, priority 2018, published 2021)
Entries after “also recorded” stand apart in the source; their conditions may differ.

Tests used:
[1] = Plasma remogliflozin after oral compressed IR tablet of remogliflozin etabonate; format: in vivo; settings: 350 mg remogliflozin etabonate, after 3 hrs
Text: Oral dosage forms according to the invention are typically tablets or capsules. Tablets can be obtained by direct compression of the mixed components of a dosage form, including an effective dosage amount of remogliflozin etabonate, and selected excipients, like cellulose derivatives, metacrylates, chitosan, carboxymethylstarch (CMS), or mixtures thereof. For example, a compressed tablet according to the invention, can be prepared by granulating remogliflozin etabonate, microcrystalline cellulose and croscarmellose sodium with a water and povidone solution. The resulting granules are dried, milled, and then blended with mannitol, microcrystalline cellulose, and croscarmellose. The blend is lubricated with magnesium stearate and compressed. […] Indeed, Tmax for an IR remogliflozin etabonate oral dosage form according to the invention occurs at 1 hour, or less, following ingestion of the dosage form by a subject.

TIA mice = experiment: TIA mouse model of primary sclerosing cholangitis, liver histology after remogliflozin etabonate-formulated diet; format: in vivo
Text: The following Examples describe the utilization of a murine model of […] (“PSC”) to assess the effectiveness of a treatment regimen based on the oral administration of remogliflozin etabonate. The murine PSC model is based on mice that are deficient for the expression of tumor necrosis factor alpha (“TNFα”), interleukin 10 (“IL-10”), and activation-induced cytidine deaminase (“AICDA”). As the mice are deficient in TNF, IL-10, and AICDA, they are referred to, herein, as “TIA” mice.
Moreover, as AICDA is required for immunoglobulin (“Ig”) class switching, TIA mice lack IgG and IgA, a phenotype analogous to humans with hyper-IgM syndrome. Therefore, with the combination of AICDA deficiency with the risk factors associated with TNFα and IL-10 deficiencies, TIA mice also develop liver and biliary inflammation reminiscent of PSC symptoms in humans. Accordingly, the TIA model is useful for investigating mechanisms that act early in PSC pathogenesis, as well as treatments that can prevent progression to PSC.
Example 1. Orally-administered remogliflozin etabonate reduces inflammatory cell infiltration, bile ductular proliferation, and interface hepatitis in TIA mice. TIA mice were created by first breeding TNFα knock out (“KO”) C57BL/6 mice, (strain B6.129S-Tnf^tm1Gkl/J, stock #005540, Jackson Laboratories, Bar Harbor, Me.) with IL-10 KO mice (strain B10.129P2(B6)-IL10^tm1Cgn/J, Stock No. 002251, Jackson Laboratories) to produce a population of mice that were deficient in TNFα and IL-10. Because mice with a TNFα−/− and IL10−/− genotype spontaneously develop inflammatory bowel disease (“IBD”) (Hale 2012), a condition associated with poor breeding success (Nagy 2016), the mice needed for further breeding to generate an AICDA population, were generated by breeding offspring with a TNFα and IL10+/− genotype with AICDA−/− mice, which were obtained from Dr. Tasuku Honjo (Muramatsu 2000)), to produce a population of TNFα−/−, IL10−/−, and AICDA+/−(“TI-hetA”) males and females. In turn, TI-hetA pairs were bred to generate populations that were 25% TIA mice, and 50% non-colitis-susceptible TI-hetA littermates that could be used as control populations. All populations were exposed to the same environment from birth. The mice were housed in polycarbonate micro-isolator cages, in individually ventilated racks, under barrier conditions that excluded all known pathogens, including Helicobacter pylori and Norovirus. Mice had ad libitum access to water, and to a standard diet (PicoLab Mouse Diet 20/5058, LabDiet, St. Louis, Mo., USA).
At four (4) weeks of age, TIA (40) and TI-hetA (22) mice were randomized into experimental groups that received either a standard diet (20 TIA and 12 het), or a standard diet formulated 0.03% remogliflozin etabonate (20 TIA and 10 het) (Avolynt Inc., USA). The mice were maintained on this diet for seven (7) weeks. Body weights were obtained three (3) times, weekly, to assess the general health of mice, and to track the development of inflammatory bowel disease (IBD). Glycosuria in the experimental groups was assessed by applying freshly voided urine directly to the glucose test patch on an Accutest® URS-10 urinary reagent test strips (Jant Pharmaceutical Corp., Encino, Calif., USA). Mice were humanely euthanized before reaching the experimental endpoint, of eleven (11) weeks of age, if they lost >15% body weight, or developed rectal prolapse.
To characterize biliary lesions in TIA mice at the end of the 7 week treatment period, liver tissue was obtained from the remogliflozin-treated, and untreated groups, for histologic examination. The excised liver tissue was fixed in Carnoy's fixative solution, and processed into paraffin blocks. The paraffin blocks were sectioned, and stained with Hematoxylin and eosin (H&E) for pathologic analysis. The H&E-stained sections were scored by an American Board of Pathology-certified pathologist. […]

[2] = TIA mice, 0.03% in diet for 7 weeks, vs untreated TIA mice, 11 weeks

Compound: CCOC(=O)OC[C@H]1O[C@@H](Oc2nn(C(C)C)c(C)c2Cc2ccc(OC(C)C)cc2)[C@H](O)[C@@H](O)[C@@H]1O [remogliflozin etabonate, 5-methyl-4-[4-(1-methylethoxy)benzyl]-1-(1-methylethyl)-1H-pyrazol-3-yl 6-O-(ethoxycarbonyl)-β-D-glucopyranoside]
- remogliflozin plasma concentration after clearance [1]: 40 ng/mL
- inflammation at the interface between the hepatic parenchyma and the portal tracts (interface hepatitis) (TIA mice; [2]): reduces; also recorded: less inflammation at the interface between the hepatic parenchyma and the portal tracts
- proliferation of bile ductules (bile ductular proliferation) (TIA mice; [2]): reduces; also recorded: less proliferation of bile ductiles
- proliferation of bile ductules (bile ductular proliferation) (TIA mice; TIA mice, 0.03% in diet for 7 weeks, vs untreated TIA mice, 11 weeks, listed as Remo): decrease in proliferation of bile ductules
- development and progression of liver and biliary disease (TIA mice; TIA mice, 0.03% remogliflozin etabonate in diet for 7 weeks from 4 weeks of age, vs standard diet, H&E liver sections at 11 weeks): markedly less development and progression of liver and biliary disease
- number of TIA mice that required early euthanasia, Remo group versus control group (TIA mice; TIA mice, 7-week study, euthanasia on >15% body weight loss or rectal prolapse): no statistical difference
- inflammatory cell infiltration (TIA mice; TIA mice, orally administered in diet): reduces
- periportal and biliary inflammation (TIA mice; TIA mouse at 11 weeks, 0.03% Remo in chow from 4 weeks of age, H&E liver section): decrease in periportal and biliary inflammation
